{"source": "patent US9695205B2", "about": "“Amide compounds for treatment of complement mediated disorders” (Achillion Pharmaceuticals, Inc., priority 2014, dated 2017)", "molecular_target": "Human factor D (Homo sapiens (Human), UniProt P00746)", "sequence (P00746 26-253)": "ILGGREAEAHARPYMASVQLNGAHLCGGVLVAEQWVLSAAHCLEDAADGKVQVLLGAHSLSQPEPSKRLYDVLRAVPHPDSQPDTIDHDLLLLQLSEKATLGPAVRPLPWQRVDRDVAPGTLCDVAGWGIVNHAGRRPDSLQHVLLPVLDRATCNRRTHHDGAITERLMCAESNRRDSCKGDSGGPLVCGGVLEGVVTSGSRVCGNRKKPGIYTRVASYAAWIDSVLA", "test": "Human Factor D Assay", "assay_type": "biochemical", "conditions": "Human factor D 80 nM, substrate Z-L-Lys-SBzl and DTNB 100 μM each, pH 7.5", "procedure": "Example 14. Human Factor D Assay\nHuman factor D (purified from human serum, Complement Technology, Inc.) at 80 nM final concentration is incubated with test compound at various concentrations for 5 minutes at room temperature in 50 mM Tris, 1M NaCl, pH 7.5. A synthetic substrate Z-L-Lys-SBzl and DTNB (Ellman's reagent) are added to final concentrations of 100 μM each. The increase in color is recorded at OD405 nm in a microplate in kinetic mode over 30 minutes with 30 second time points in a spectrofluorimeter. IC50 values are calculated by non-linear regression from the percentage of inhibition of complement factor D activity as a function of test compound concentration.", "data": [{"smiles": "NC(=O)c1nn(CC(=O)N2C[C@H](F)C[C@H]2C(=O)Nc2cccc(-c3ccccc3Cl)c2F)c2ccc(NC(=O)N3CCC(F)(F)C3)cc12", "note": "[Compound 30, 1-(2-((2S,4R)-2-(2′-chloro-2-fluorobiphenyl-3-ylcarbamoyl)-4-fluoropyrrolidin-1-yl)-2-oxoethyl)-5-(3,3-difluoropyrrolidine-1-carboxamido)-1H-indazole-3-carboxamide]", "values": [{"measurement": "IC50", "value": "< 1000", "unit": "nM"}]}, {"smiles": "CC(=O)c1cn(CC(=O)N2C[C@H](F)C[C@H]2C(=O)NCc2cccc(Cl)c2F)c2cc(C(=O)NS(=O)(=O)c3ccccc3)ccc12", "note": "[Compound 53]", "values": [{"measurement": "IC50", "value": "< 1000", "unit": "nM"}]}, {"smiles": "NC(=O)c1nn(CC(=O)N2[C@@H]3C[C@@H]3C[C@H]2C(=O)Nc2cccc(-c3ccccc3Cl)c2F)c2ccc(NC(=O)N3CCCC(F)(F)C3)cc12", "note": "[Compound 28, 1-(2-((1R,3S,5R)-3-(2′-chloro-2-fluorobiphenyl-3-ylcarbamoyl)-2-azabicyclo[3.1.0]hexan-2-yl)-2-oxoethyl)-5-(3,3-difluoropiperidine-1-carboxamido)-1H-indazole-3-carboxamide]", "values": [{"measurement": "IC50", "value": "< 1000", "unit": "nM"}]}, {"smiles": "CC(=O)c1cn(CC(=O)N2C[C@H](F)C[C@H]2C(=O)NCc2cccc(Cl)c2F)c2cc(C(=O)N[C@H]3CCN(C(C)=O)C3)ccc12", "note": "[Compound 46, 3-acetyl-N-((S)-1-acetylpyrrolidin-3-yl)-1-(2-((2S,4R)-2-(3-chloro-2-fluorobenzylcarbamoyl)-4-fluoropyrrolidin-1-yl)-2-oxoethyl)-1H-indole-6-carboxamide]", "values": [{"measurement": "IC50", "value": "< 1000", "unit": "nM"}]}, {"smiles": "CC(=O)c1cn(CC(=O)N2C[C@H](F)C[C@H]2C(=O)Nc2cccc(OC(F)(F)F)c2F)c2ccc(NC(=O)NC3CC3)cc12", "note": "[Compound 10, (2S,4R)-1-(2-(3-acetyl-5-(3-cyclopropylureido)-1H-indol-1-yl)acetyl)-4-fluoro-N-(2-fluoro-3-(trifluoromethoxy)phenyl) pyrrolidine-2-carboxamide]", "values": [{"measurement": "IC50", "value": "< 1000", "unit": "nM"}]}, {"smiles": "CC(=O)c1cn(CC(=O)N2C[C@H](F)C[C@H]2C(=O)NCc2cccc(Cl)c2F)c2ccc(NC(=O)NCC(F)(F)F)cc12", "note": "[Compound 21, (2S,4R)-1-(2-(3-acetyl-5-(3-(2,2,2-trifluoroethyl)ureido)-1H-indol-1-yl)acetyl)-N-(3-chloro-2-fluorobenzyl)-4-fluoropyrrolidine-2-carboxamide]", "values": [{"measurement": "IC50", "value": "< 1000", "unit": "nM"}]}, {"smiles": "NC(=O)c1nn(CC(=O)N2C[C@H](F)C[C@H]2C(=O)Nc2cccc(-c3ccccc3Cl)c2F)c2ccc(NC(=O)N3CCC(F)(F)CC3)cc12", "note": "[Compound 31, 1-(2-((2S,4R)-2-(2′-chloro-2-fluorobiphenyl-3-ylcarbamoyl)-4-fluoropyrrolidin-1-yl)-2-oxoethyl)-5-(4,4-difluoropiperidine-1-carboxamido)-1H-indazole-3-carboxamide]", "values": [{"measurement": "IC50", "value": "< 1000", "unit": "nM"}]}]}
